In one experiment the test system is ICAM-1. Kind of experiment: ELISA of ICAM-1 release from TNF-α stimulated HUVEC. It counts as cell-based, human. The note with it: HUVEC pretreated 24 hours, then 2 ng/mL TNF-α for 6 hours. The method, then: (§1) Cell Culture: All experiments were performed with cultured Human Umbilical Vein Endothelial Cells (HUVECs—Gibco, Invitrogen) and grown to confluence at 37° C. in a 5% CO2 humidified incubator, on tissue culture flasks previously coated with 1% gelatin in supplemented culture medium (M199 with 10% heat inactivated fetal calf serum, 100 U/ml penicillin, 100 μg/ml streptomycin, 2 mM glutamine, 10 mM HEPES, pH 7.4, heparin 12 I.U./ml, 1% retinal derived growth factor, Sigma). Following trypsin treatment, the cells were detached from the flasks and final mono-layers were prepared by seeding HUVECs on gelatin-precoated culture plates and then incubated for 24-48 h to ensure confluence. Cells up to the fourth passage were used for all experiments. Recombinant human TNF-α was purchased from R&D Systems (Minneapolis, Minn.).
(§2) Enzyme-Linked Immunosorbent Assay (ELISA): To measure the expression of cell surface adhesion molecules, ELISA technique was utilized (R and D Systems, Minneapolis, Minn.). […]
(§3) Enzyme-Linked Immunosorbent Assay (ELISA) and results: To measure the expression of cell surface adhesion molecules, ELISA technique was utilized. […] The expression of VCAM-1 and ICAM-1 were evaluated after TNF-α stimulation for 6 hours.
On the technique in general: In an ELISA, binding on a coated surface is turned into a signal by an enzyme label.

The subject of the next experiment is VCAM-1. Kind of experiment: ELISA of VCAM-1 release from TNF-α stimulated HUVEC. It counts as cell-based, human. The note with it: HUVEC pretreated 24 hours, then 2 ng/mL TNF-α for 6 hours. As to the method:
as §1, §2, §3

The next experiment has as its system p65 subunit of NF-κB. Description: NF-κB translocation assay in HUVECs. It counts as cell-based, human. The note with it: HUVEC. From the text: NF-κB Translocation Assays: Cytokines such as TNF-α and interleukin-1 (IL-1) activate a pro-inflammatory response in endothelial cells. An early event in this response is nuclear translocation of the NF-κB transcription factor. This translocation causes the transcription of pro-inflammatory genes such as adhesion molecules VCAM-1, ICAM-1 and E-Selectin to be induced.
NF-κB is a heterodimer, composed of p65 and p50 subunits. Nuclear translocation is monitored by immunolocalization of the p65 subunit of NF-κB in fixed cells and is quantified by measuring the ratio of nuclear to cytoplasmic NF-κB signal. The nuclear translocation of NF-κB in stimulated cells such as primary human umbilical vein endothelial cells (HUVECs) therefore provides a readout that can be used to study the effects of bioactive compounds on the responsiveness of endothelium to pro-inflammatory stimuli. HUVECs were pre-treated with INV-75 at various concentrations (10 nM to 1 μM) or control (without [INV-75) for 24 hours. The media was then changed to one containing 10 ng/ml TNFα, or 1 μg/ml bovine serum albumin (vehicle) for 6 hours. p65 distribution was calculated as intensity in the cytoplasm and nucleus in regions of interest. At least 5 cells per high power field were used and at least 5 high power fields per concentration of the drug were used. The intensities were then expressed as the ratio of nuclear to cytoplasmic staining at least 5 cells per high power field. The data was then expressed as a ratio of the nuclear to cytoplasmic ratio without TNF-α.
In alternate experiments to assess NF-κB Activation extraction reagents were used to extract nuclear and cytoplasmic fraction from HUVEC cells previously treated with INV-75 at various concentrations for 6-24 hours before being stimulated with 2 ng/mL TNF-α for 6 hours. The expression of VCAM-1 and ICAM-1 were evaluated after TNF-α stimulation for 6 hours stimulation by western blot analysis. The p65 level in nuclear and cytoplasmic extracts were then analyzed by western blotting as described above.

Another experiment relates to Cardiovascular Patient. Description: Treatment of a patient with acute non-ST elevation myocardial infarction (Examples 11-12). It counts as in vivo, human. The note with it: 1.0 to 100 mg/kg in the catheterization laboratory. As to the method:
A person presents with uncomfortable pressure, squeezing and pain in the center of their chest as well as in shoulders, arms, neck, jaw and back for over 4 hours. They also complain of shortness of breath. […] They are given aspirin, clopidogrel, nitrates and IV heparin and taken to the catheterization laboratory. After being evaluated with an angiography, they are diagnosed as suffering from a […] blockage in the left anterior descending coronary artery. The patient is administered a composition comprising an effective amount of 3,4-Methylenedioxy 6-nitro phenyl lipoate (INV-7465) (1.0 to 100 mg/kg) in the catheterization laboratory. Patient reports improvement in the chest pain, shortness of breath. They are again evaluated with an angiography to measure reduced plaque in their arteries.
A person presents with uncomfortable pressure, squeezing and pain in the center of their chest as well as in shoulders, arms, neck, jaw and back for over 4 hours. They also complain of shortness of breath. […] They are given aspirin, clopidogrel, nitrates and IV heparin and taken to the catheterization laboratory. After being evaluated with an angiography, they are diagnosed as suffering from a […] blockage in the left anterior descending coronary artery. […] They are again evaluated with an angiography to measure reduced plaque in their arteries.

In the next experiment the test system is Patients. Description: Treatment of patients with Type I and Type II diabetes (Example 24). The experiment is classed as in vivo, human. The note with it: diabetic patients, oral, 12 months. From the text: Individuals with Type I and Type II diabetes are at risk for future cardiovascular events such as heart attacks, strokes and kidney disease. These individuals are on prevention treatments such as hypolipidemic drug therapy such as statins and anti-hypertensive agents such as ACE inhibitors. They are already receiving glycemia lowering strategies such as Insulin, PPARγ agents, Metformin or sulfonylurea therapy. They also will receive an acceptable dose of a composition comprising a compound of the present invention in an acceptable carrier orally chronically for durations in excess of 12 months. In one study, 3,4-Methylenedioxy 6-nitro phenyl lipoate (INV-7465) or 3,4-Methylenedioxy phenyl lipoate (INV-7065) are administered to these individuals. The patients undergo the following measurements: HbA1C to assess glycemic control, urinary microalbuminura, blood pressure and lipid measurements. At the end of 12 months of treatment, there is lowering of HbA1C and urinary microalbuminuria. There is an improvement in VLDL cholesterol and a decrease in triglycerides with any of these treatments [(3,4-methylenedioxy phenyl acetate (INV 73); 3,4-methylenedioxy-6-nitrophenol (INV 74); 3,4-methylenedioxy-6-nitrophenyl acetate (INV 75); 3,4-Methylenedioxy 6-nitro phenyl lipoate (INV-7465) or 3,4-Methylenedioxy phenyl lipoate (INV-7065)].

For `CC(=O)Oc1cc2c(cc1[N+](=O)[O-])OCO2` [INV-75, 3,4-methylenedioxy-6-nitrophenyl acetate], the “release of ICAM-1” value with ICAM-1 is “marked reduction”. The “release of VCAM-1” value in the experiment with VCAM-1 is listed as “marked reduction”. Besides, the “nuclear p65 expression (nuclear to cytoplasmic ratio)” value in the experiment with p65 subunit of NF-κB (24 hours pre-treatment, then TNF-α, n=3) is reported as “marked inhibition”. Also, the “concentration from which translocation of p65 to the nucleus is inhibited” value in the experiment with p65 subunit of NF-κB (TNF-α stimulated) was ≥ 10 nM. The “chest pain, shortness of breath” value in the experiment with Cardiovascular Patient was “improvement”. Moreover, in the experiment with Patients, the VLDL cholesterol result is “improvement” and the triglycerides entry is recorded as “decrease”.
Turning to `O=C(CCCCC1CCSS1)Oc1ccc2c(c1)OCO2` (stereo not shown) [INV-7065, 3,4-Methylenedioxy phenyl lipoate], in the experiment on Patients, the HbA1C result is “lowering”, the VLDL cholesterol entry is “improvement”, the triglycerides result is reported as “decrease” and the urinary microalbuminuria entry was “lowering”.
Consider `O=C(CCCCC1CCSS1)Oc1cc2c(cc1[N+](=O)[O-])OCO2` (stereo not shown) [INV-7465, 3,4-Methylenedioxy 6-nitro phenyl lipoate], for which the “release of ICAM-1” value in the experiment on ICAM-1 is reported as “marked reduction”. For the same compound, the “release of VCAM-1” value in the experiment on VCAM-1 is “marked reduction”. The “ratio of nuclear to cytoplasmic staining of p65” value in the experiment on p65 subunit of NF-κB (TNF-α, at all the concentrations tested) is on record as “decrease”. In addition, the “chest pain, shortness of breath” value in the experiment on Cardiovascular Patient is on record as “improvement”. Besides, in the experiment on Patients, the HbA1C entry was “lowering”, the VLDL cholesterol result was “improvement”, the triglycerides result was “decrease” and the urinary microalbuminuria entry is reported as “lowering”.

(Values after patent publication US8198317B2, “Methylenedioxy phenolic compounds and their use to treat disease” (The Ohio State University Research Foundation, priority 2008, dated 2012).)
